According to patent US6372779B1, “Anti-inflammatory compounds” (Ortho Pharmaceutical Corporation, priority 1997, dated 2002):

molecular target: T1, human glucocorticoid receptor (hGR) (Homo sapiens, UniProt P04150); experiment: human glucocorticoid receptor binding assay (displacement of 3H triamcinolone acetonide); conditions: 1 μM
T1 construct: made in house; host or cells: Sf21 insect cells infected with baculovirus hGR, OR IM9 lymphoblast cell line (endogenous hGR)
T1 sequence (P04150 1-777): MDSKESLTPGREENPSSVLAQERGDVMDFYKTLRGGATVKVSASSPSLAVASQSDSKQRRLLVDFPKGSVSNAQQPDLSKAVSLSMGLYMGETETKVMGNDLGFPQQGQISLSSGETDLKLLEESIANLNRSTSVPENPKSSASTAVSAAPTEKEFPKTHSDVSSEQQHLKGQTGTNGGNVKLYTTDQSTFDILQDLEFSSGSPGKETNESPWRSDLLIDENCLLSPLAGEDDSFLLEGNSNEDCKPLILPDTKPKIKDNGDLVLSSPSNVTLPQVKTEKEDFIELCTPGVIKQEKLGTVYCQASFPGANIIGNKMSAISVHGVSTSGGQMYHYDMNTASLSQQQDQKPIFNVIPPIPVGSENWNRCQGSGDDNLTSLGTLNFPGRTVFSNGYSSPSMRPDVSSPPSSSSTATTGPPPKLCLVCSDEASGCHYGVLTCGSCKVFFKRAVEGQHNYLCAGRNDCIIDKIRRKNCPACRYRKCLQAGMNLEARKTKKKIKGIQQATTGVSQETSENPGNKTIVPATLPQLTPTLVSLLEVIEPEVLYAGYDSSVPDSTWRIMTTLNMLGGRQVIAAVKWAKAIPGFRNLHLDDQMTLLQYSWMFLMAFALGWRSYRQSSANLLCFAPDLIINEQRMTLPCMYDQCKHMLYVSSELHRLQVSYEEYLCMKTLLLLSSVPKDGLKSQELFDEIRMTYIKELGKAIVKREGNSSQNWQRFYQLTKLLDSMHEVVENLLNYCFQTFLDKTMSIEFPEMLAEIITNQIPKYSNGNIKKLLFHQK
Method: A human glucocorticoid receptor binding assay was carried out to determine the extent to which the compounds of this invention have the ability to bind to human glucocorticoid receptors. This binding ability may be indicative of the antiinflammatory activity of the compound. The test was carried out as follows.
Human glucocorticoid receptors were prepared from either insect cells (Sf21) infected with baculovirus hGR or from a lymphoblast cell line which expresses high levels of endogenous hGR (IM9). The receptor binding reactions, with or without test compounds, were set up in 96-well microtiter plates which were previously siliconized with SIGMACOTE™, a chlorinated organopolysiloxane in heptane. The binding components, 3(H) Triamcinolone acetonide (TAA), glycerol/molybdate-containing buffer and unlabeled compounds were added to the wells using a combination of BIOMEK laboratory automation system and repeat pipettes. After four hours of incubation, the samples were precipitated with polyethylene glycol and filtered through Whatman GFIF paper using a TOMTEK cell harvester. The filter mate with 96 samples were bound to a solid-phase scintillant and directly counted in a BETAPLATE counter. […] The activity of test compounds to displace 3(H) TAA binding to hGR is also expressed as percent inhibition at 1 μM.

Point of comparison: COc1ccccc1NC(=O)NCC1(c2ccccc2)CC1(c1ccccc1)c1ccccc1 (stereo not shown) [Compound 94], “hGR, value given as % (% inhibition)” value 13%. Against it:
- COc1ccccc1CC(=O)NCC(c1ccccc1)C(c1ccccc1)c1ccccc1 (stereo not shown) [Compound 5] — higher, 62%
- COc1ccccc1NC(=O)NCC(c1ccccc1)C(c1ccccc1)c1ccccc1 (stereo not shown) [Compound 51] — higher, 32%
- COc1ccccc1CC(=O)NCC(c1ccccc1)C1c2ccccc2-c2ccccc21 (stereo not shown) [Compound 67] — higher, 23%
- O=C(Cc1ccccc1Cl)NCC(c1ccccc1)C1c2ccccc2-c2ccccc21 (stereo not shown) [Compound 68] — higher, 46%
- O=C(Cc1ccccc1C(F)(F)F)NCC(c1ccccc1)C1c2ccccc2-c2ccccc21 (stereo not shown) [Compound 69] — higher, 15%
- COc1ccccc1CCC(=O)NCC(c1ccccc1)C1c2ccccc2-c2ccccc21 (stereo not shown) [Compound 70] — higher, 53%
- Cc1ccc(C(=O)NCC(c2ccccc2)C2c3ccccc3-c3ccccc32)s1 (stereo not shown) [Compound 72, N-(2-carbonyl-5-methylthiophene)-2-(9H-fluoreny-9-yl)-2-phenylethylamine] — higher, 33%
- CC(C)CC(=O)NCC1(c2ccccc2)CC1(c1ccccc1)c1ccccc1 (stereo not shown) [Compound 85] — higher, 68%
- O=C(NCC1(c2ccccc2)CC1(c1ccccc1)c1ccccc1)Nc1ccccc1F (stereo not shown) [Compound 93] — lower, 11%
- O=C(NCc1ccccc1)NCC1(c2ccccc2)CC1(c1ccccc1)c1ccccc1 (stereo not shown) [Compound 95] — lower, 4%

test system: human progesterone receptor (hPR); experiment: human progesterone receptor binding assay (displacement of 3H R5020 promegestone); conditions: not given
Method: A human progesterone receptor binding assay was performed in order to determine selectivity of the compounds, as follows. Human progesterone receptors were prepared from either insect cells (SF21) infected with baculovirus hPR A, or from a breast cancer cell line, T47D, which expresses high levels of endogenous hPR. The receptor binding reactions, with or without test compounds, were set up in 96-well microtiter plates which were previously siliconized with SIGMACOTE. The binding components, 3(H) R5020 Promegestone, a high affinity ligand for the progesterone receptors, glycerollmolybdate-containing buffer and unlabeled compounds were added to the wells using a combination of BIOMEK laboratory automation system and repeat pipettes. After overnight incubation, the samples were precipitated with polyethylene glycol and filtered through Whatman GF/F paper using a TOMTEK cell harvester. The filter mate with 96 samples were bound to a solid-phase scintillant and directly counted in the BETAPLATE counter. Only those compounds that were active in the human glucocorticoid receptor assay set forth in Example 30 were used for progesterone receptor binding to determine cross-reactivity profiles, if any. The activity of test compounds to displace 3(H) R5020 binding to hPR is expressed as percent inhibition at the two concentrations, 10^−6 and 10^−5 Molar.

Point of comparison: O=C(NCC(c1ccc(I)cc1)C(c1ccccc1)c1ccccc1)c1ccc(C(F)(F)F)cc1 (stereo not shown) [Compound 177], “hPR % inh 10 μM” value 53%. Against it:
- O=C(NCC(c1ccc(I)cc1)C(c1ccccc1)c1ccccc1)c1ccc(F)cc1 (stereo not shown) [Compound 176] — higher, 68%
- O=C(NCC(c1ccc(I)cc1)C(c1ccccc1)c1ccccc1)c1cc(C(F)(F)F)cc(C(F)(F)F)c1 (stereo not shown) [Compound 178] — the same, 53%
- O=C(NCC(c1ccc(I)cc1)C(c1ccccc1)c1ccccc1)c1cccs1 (stereo not shown) [Compound 179] — the same, 53%
- Cc1ccc(C(=O)NCC(c2ccc(I)cc2)C(c2ccccc2)c2ccccc2)s1 (stereo not shown) [Compound 180] — higher, 57%
- COc1ccccc1C(=O)NCC(c1ccc(I)cc1)C(c1ccccc1)c1ccccc1 (stereo not shown) [Compound 181] — lower, 41%
- COc1cccc(C(=O)NCC(c2ccc(I)cc2)C(c2ccccc2)c2ccccc2)c1 (stereo not shown) [Compound 182] — lower, 15%
- COc1cc(OC)cc(C(=O)NCC(c2ccc(I)cc2)C(c2ccccc2)c2ccccc2)c1 (stereo not shown) [Compound 183] — lower, 42%
